Assay results as given in PMC12163635, “Synthetic Retinoids for the Modulation of Genomic and Nongenomic Processes in Neurodegenerative Diseases” (ACS Omega, 2025).
Entries after “also recorded” stand apart in the source; their conditions may differ.

What was measured:
[1] = tested on: Sil-15 cells containing a RARE driving a lacZ reporter; assay: X-Gal-based RA reporter assay (genomic response); format: cell-based; design: genomic response Emax (±95% CI): unit not given here; conditions: for genomic response Emax (±95% CI) / EC50: Sil-15 reporter cells; for genomic response Emax (±95% CI): absorbance at 650 nm; for genomic E max compared with ATRA / genomic EC50 compared with ATRA: nonoverlapping 95% CI; for EC50: read-out: genomic response EC50 (±95% CI), overnight, 10^–6 to 10^–14 M
Excerpt: Following chemical design and synthesis, the synthetic retinoid library was screened for genomic and nongenomic biological activities and compared to the response of the endogenous retinoid, ATRA. In these assays, the EC50 value represented the concentration of retinoid that gave half-maximal response (potency), while the E max value represented the maximum response achievable from the retinoid (efficacy).
The transcriptional genomic activity of the retinoids was quantified using Sil-15 cells containing a RARE driving a lacZ reporter. […] Twenty-two of the synthetic retinoids were effective in inducing genomic activity. […] In addition, the retinoids varied in their efficacies.
The Sil-15 cell line was used in the X-gal RA reporter assay described below. The cells were grown in Dulbecco’s modified Eagle’s medium (DMEM) containing 10% fetal bovine serum (FCS) (Invitrogen/Gibco), 0.6% penicillin-streptomycin (Gibco) and 0.8 mg/mL G418 sulfate (Sigma) for selection. They were maintained in a humidified atmosphere containing 5% CO2 at 37 °C. The medium was changed three times a week and the cells were passaged at 70% confluence using 0.05% trypsin-EDTA.
Sil-15 cells are F9 teratocarcinoma cells stably transfected with a plasmid containing the LacZ gene under the control of a DR5-type RA response element (RARE). The reporter cell line was used to detect the transcriptional genomic activity of ATRA and other retinoids by colorimetrically quantifying the insoluble blue product generated by β-galactosidase from X-gal during the assay. The assay was performed by plating 100,000 cells per well in the 0.1% gelatin-coated 96-well plates and leaving them to attach overnight. The ATRA/retinoids dilutions ranging from 10^–6 to 10^–14 M were incubated on the reporter cells overnight at 37 °C, in 5% CO2. A standard curve of ATRA was included in each experiment to ensure the reproducibility of the results between assays performed on different days. All the assays for ATRA as well as the retinoids were quantified in triplicate. Serial dilutions of retinoids were prepared from a stock solution under red/orange light. The stock solutions prepared in DMSO for each retinoid varied depending on the solubility of each compound. Each stock was stored at −20 °C and protected from light. The next day, Sil-15 cells were washed with PBS, fixed with 1% glutaraldehyde and 1 mM MgCl2 solution for 15 min, and developed in X-gal developing solution (0.2% X-Gal, 1 mM MgCl2, 3.3 mM potassium ferricyanide and 3.3 mM potassium ferrocyanide in PBS). The plates were read on an E max microplate reader (Molecular Devices) at 650 nm.
(§1) All data are presented as mean ± SEM of three independent experiments with biological triplicates. Statistical analyses were performed in Microsoft Office Excel 2019 or GraphPad Prism 7.0c version (Prism, GraphPad Software, San Diego, CA). Neurite outgrowth data were analyzed by one-way ANOVA with Newman-Keuls multiple comparison test as appropriate; P value <0.05 was considered statistically significant. *P < 0.05, **P < 0.01. Data for X-Gal and ERK1/2 phosphorylation were analyzed using sigmoidal dose–response analysis of log (agonist) versus response curve (stimulation).

[2] = tested on: ERK1/2 phosphorylation in SH-SY5Y cells; assay: ERK1/2 phosphorylation (nongenomic response), AlphaScreen SureFire; format: cell-based, human; design: nongenomic response Emax (±95% CI): unit not given here; conditions: for EC50: Homo sapiens, read-out: nongenomic response EC50 (±95% CI); for nongenomic E max compared with ATRA: nonoverlapping 95% CI
Description: After screening the retinoids for genomic responses, they were tested for their nongenomic ability to rapidly phosphorylate ERK1/2 in the SH-SY5Y cell line. ATRA is known as a potent activator of ERK1/2 − and was used as the standard for comparison. […] The efficacies of the remaining seven retinoids were similar to ATRA.
(§2) SH-SY5Y cell line as used in ERK phosphorylation and neurite outgrowth assays described below. The cells were grown in DMEM containing 10% FCS at 37 °C with 5% CO2. The medium was changed three times a week and the cells were passaged at 70% confluence using 0.05% trypsin-EDTA.
To quantify ERK1/2 phosphorylation, SH-SY5Y cells (100,000 cells/well) were plated onto 96-well plates and serum-starved for 24 h in DMEM. Cells were assayed in serum-free DMEM and stimulated for 60 min at 37 °C in a humidified atmosphere. Retinoids were tested at concentrations ranging from 10 to 4 to 10–11 M and at a final concentration of 0.1% DMSO. At the end of the assay, the medium was removed, and cells were lysed with lysis buffer supplied in the AlphaScreen SureFire ERK1/2 kit (PerkinElmer). The assay was performed in 384-well white Proxiplates according to the manufacturer’s instructions and using the beads supplied in the protein A general IgG detection kit (PerkinElmer). Briefly, 4 μL samples were incubated with 7 μL of the freshly prepared mixture containing donor and acceptor beads. Plates were incubated at room temperature and read with the Envision system (PerkinElmer Life Sciences) using AlphaScreen settings.
as §1

[3] = tested on: SH-SY5Y cells; assay: Neurite outgrowth; format: cell-based, human; conditions: 5 days; for fold induction at 0.01 µM: Homo sapiens, SH-SY5Y, 120 h, 10 nM compound, in comparison to nontreated cells, read-out: fold increase in neurite outgrowth; for induction of neurite outgrowth compared with ATRA: 10 nM
Description: Following the characterization of retinoids for their genomic and nongenomic activities, the ability of retinoids to differentiate and induce neurite outgrowth in the neuroblastoma cell line, SH-SY5Y cells, was examined (Figure ). Neurite outgrowth can be induced in this cell line by ATRA at 10 μM.
as §2
SH-SY5Y cells were plated at 10,000 cells/well in 12-well plates containing 16 mm acid-treated/poly L-lysine-coated glass coverslips. After 24 h, retinoids were added to the medium and tested at two different concentrations, 10 μM and 10 nM, with a final DMSO concentration of 0.01 or 0.0001%, respectively. The plates were incubated for 5 days at 5% CO2/37 °C. All retinoid concentrations were tested in triplicate. Cells were fixed using 4% paraformaldehyde and stained for β-III tubulin (1:1000; Sigma). For each neurite outgrowth experiment, 3 coverslips (in 3 wells) were used. ImageJ software with the NeuronJ plugin was used to quantify neurite outgrowth on stained cells in each of the 10 randomly selected images of each coverslip taken using a Nikon Eclipse E400 fluorescence microscope. The average neurite length was calculated for each image by dividing total neurite length by the total number of neurites per image.
as §1

Row | SMILES | genomic response Emax (±95% CI) [1] | genomic E max compared with ATRA [1] | EC50 [1] [nM] | induction of ERK1/2 phosphorylation (nongenomic activity) ([2]; SH-SY5Y cells, 1 h) | nongenomic response EC50 (±95% CI) ([2]; SH-SY5Y cells, 1 h) | nongenomic response Emax (±95% CI) ([2]; SH-SY5Y cells, 1 h) | fold induction at 0.01 µM [3] | genomic EC50 compared with ATRA [1] | EC50 ([2]; SH-SY5Y cells, 1 h) [nM] | nongenomic E max compared with ATRA [2] | induction of neurite outgrowth compared with ATRA [3]
1 | Cc1sc(-c2ccc(C(=O)O)cc2F)nc1-c1cnc2c(n1)C(C)(C)CCC2(C)C [Compound 43, 3-Fluoro-4-[5-methyl-4-(5,5,8,8-tetramethyl-5,6,7,8-tetrahydroquinoxalin-2-yl)-1,3-thiazol-2-yl]benzoic Acid] | 195 (±35.2) | significantly higher E max than ATRA | 1.64 | lacked nongenomic activity | no response | no response | 1.8 | – | – | – | –
2 | CC1(C)CCC(C)(C)c2cc(C#Cc3cnc(C(=O)O)cn3)ccc21 [Compound 25, 5-[2-(5,5,8,8-Tetramethyl-5,6,7,8-tetrahydronaphthalen-2-yl)ethynyl]pyrazine-2-carboxylic Acid] | 174 (±8.25) | – | 3.98 | – | – | 27.9 (±1.66) | – | significantly higher EC50 values than ATRA | 20.7 | E max values significantly lower than ATRA | induced neurite outgrowth but not significantly compared to ATRA
3 | CC1(C)CCC(C)(C)c2cc(C#Cc3ccc(C(=O)O)cc3F)ccc21 [Compound 14, 3-Fluoro-4-[2-(5,5,8,8-tetramethyl-5,6,7,8-tetrahydronaphthalen-2-yl)ethynyl]benzoic Acid] | 149 (±14.9) | significantly lower E max than ATRA | 0.0581 | – | – | 50.7 (±2.51) | 2.1 | – | 27.4 | – | –
4 | Cc1cc2c(cc1C#Cc1cc(F)c(C(=O)O)c(F)c1)C(C)(C)CCC2(C)C [Compound 19, 2,6-Difluoro-4-[2-(3,5,5,8,8-pentamethyl-5,6,7,8-tetrahydronaphthalen-2-yl)ethynyl]benzoic Acid] | – | – | 0.27 | – | – | 77.6 (±2.92) | 1.6 | significantly lower EC50 than ATRA | 144 | E max values significantly higher than ATRA | significantly induced neurite outgrowth compared to ATRA
5 | CC1(C)CCC(C)(C)c2cc(C#Cc3ccc(C(=O)O)cc3Cl)ccc21 [Compound 16, 3-Chloro-4-[2-(5,5,8,8-tetramethyl-5,6,7,8-tetrahydronaphthalen-2-yl)ethynyl]benzoic Acid] | 97.2 (±7.9) | significantly lower E max than ATRA | 13.6 | – | – | 36.9 (±2.77) | 1.6 | significantly higher EC50 values than ATRA | 90.8 | E max values significantly lower than ATRA | –
6 | Cc1sc(-c2ccc(C(=O)O)cc2)nc1-c1cnc2c(n1)C(C)(C)CCC2(C)C [Compound 40, 4-[5-Methyl-4-(5,5,8,8-tetramethyl-5,6,7,8-tetrahydroquinoxalin-2-yl)-1,3-thiazol-2-yl]benzoic Acid] | 181 (±7.45) | significantly higher E max than ATRA | 0.00232 | – | – | 40.7 (±1.02) | 1.9 | significantly lower EC50 than ATRA | 0.0532 | E max values significantly lower than ATRA | –
7 | CC1(C)CCC(C)(C)c2nc(C#Cc3ccc(C(=O)O)cc3)cnc21 [Compound 30, 4-[2-(5,5,8,8-Tetramethyl-5,6,7,8-tetrahydroquinoxalin-2-yl)ethynyl]benzoic Acid] | – | – | – | showed activity toward the nongenomic pathway | – | 91.6 (±3.21) | 2.3 | significantly lower EC50 than ATRA | 8.54 | E max values significantly higher than ATRA | significantly induced neurite outgrowth compared to ATRA; also recorded: even higher activity compared to EC23 and GZ25
8 | Cc1cc2c(cc1C#Cc1ncc(C(=O)O)cn1)C(C)(C)CCC2(C)C [Compound 28, 2-[2-(3,5,5,8,8-Pentamethyl-5,6,7,8-tetrahydronaphthalen-2-yl)ethynyl]pyrimidine-5-carboxylic Acid] | 192 (±12.7) | – | 0.826 | – | – | 44.7 (±3.15) | – | – | 5.42 | – | induced neurite outgrowth but not significantly compared to ATRA
9 | Cc1sc(-c2ccc(C(=O)O)cn2)nc1-c1cnc2c(n1)C(C)(C)CCC2(C)C [Compound 41, 6-[5-Methyl-4-(5,5,8,8-tetramethyl-5,6,7,8-tetrahydroquinoxalin-2-yl)-1,3-thiazol-2-yl]pyridine-3-carboxylic Acid] | 144 (±16.5) | significantly lower E max than ATRA | 16.9 | – | – | 55.26 (±0.00) | 1.7 | significantly higher EC50 values than ATRA | 15.4 | E max values significantly higher than ATRA | –
10 | CC1(C)CCC(C)(C)c2cc(C#Cc3ccc(C(=O)O)cn3)ccc21 [Compound 23, 6-[2-(5,5,8,8-Tetramethyl-5,6,7,8-tetrahydronaphthalen-2-yl)ethynyl]pyridine-3-carboxylic Acid] | 210 (±8.45) | significantly higher E max than ATRA | – | showed activity toward the nongenomic pathway | – | 85.7 (±9.23) | 1.9 | – | 23.9 | – | significantly induced neurite outgrowth compared to ATRA
